Test results: ChEMBL document CHEMBL3301361, “Experimental in vitro DMPK and physicochemical data on a set of publicly disclosed compounds”
Converted amounts (≈) assume the structure as drawn.

Tests used:
physchem [1] = conditions: octan-1-ol/water
physchem [2] = conditions: pH 7.4 buffer

Structure (SMILES) | logD (physchem [1]; pH 7.4, LogD7.4) | solubility thermodynamic (physchem [2]) | logD (physchem [1]; pH 7.4)
O=C(NC1CCCS(=O)(=O)C1)c1ccc(Oc2ccc(C#C[C@]3(O)CN4CCC3CC4)cc2)cc1 (some centres undefined) |  | 162 µM (≈ 80.2 µg/mL) | 1.4
NC(=O)c1sc(-c2ccccc2)cc1N | 2.33 | 38.9 µM (≈ 8.49 µg/mL) | 
FC(F)(F)c1nnc2ccc(N3CCCCCC3)nn12 | 3.29 | 132 µM (≈ 37.6 µg/mL) | 
Cn1c(=O)c(Oc2ccc(F)cc2F)cc2cnc(NC3CCOCC3)nc21 [R-1487] | 2.76 | 20.4 µM (≈ 7.92 µg/mL) | 
N#Cc1cnn(-c2ccccc2)c1NC(=O)CN1CCOCC1 | 0.5 | 1020 µM (≈ 319 µg/mL) | 
COc1cc(N2CCN(C(C)=O)CC2)ccc1Nc1ncc(Cl)c(-c2cnc3cc(CO)ccn23)n1 | 3.1 | 22.9 µM (≈ 11.6 µg/mL) | 
Cc1ccnc2nc(C(=O)Nc3nccs3)nn12 |  | 339 µM (≈ 88.2 µg/mL) | 0.31
Oc1ncnc2scc(-c3ccsc3)c12 | 2.25 | 178 µM (≈ 41.7 µg/mL) | 
Nc1ccc2cccc(Nc3ncccn3)c2n1 | 2.7 | 26.9 µM (≈ 6.38 µg/mL) | 
Cc1ncc(-c2nc(Nc3ccc(C(=O)NC4CCN(C)CC4)c(F)c3)ncc2F)n1C(C)C | 2.41 | 275 µM (≈ 129 µg/mL) | 
CS(=O)(=O)c1ccc(Oc2ccc(C#C[C@]3(O)CN4CCC3CC4)cc2)cc1 |  | 457 µM (≈ 182 µg/mL) | 1.51
FC(F)(F)c1nnc2ccc(N3CCCC3)nn12 | 2.41 | 417 µM (≈ 107 µg/mL) | 
Cc1ccc(NC(=O)N2CCN(C[C@@H]3CCCN(C4CC4)C3)CC2)cc1Cl | 3.37 | 575 µM (≈ 225 µg/mL) | 
Oc1nc(-c2ccccc2)c(-c2ccccc2)o1 | 3.42 | 107 µM (≈ 25.4 µg/mL) | 
COc1cccc(Nc2nnc(C(=O)Nc3ccc(N4CCOCC4)nc3)o2)c1 | 2.8 | 4.6 µM (≈ 1.82 µg/mL) | 
Cc1ccc(CO)cc1N(C)c1ccnc(Nc2cc(CN3CCOCC3)cc(N3CCOCC3)c2)n1 | 3 | 372 µM (≈ 187 µg/mL) | 
Cc1cn(C[C@H]2CN(c3ccc(C4=CCS(=O)(=O)CC4)c(F)c3)C(=O)O2)nn1 | 1.25 | 372 µM (≈ 151 µg/mL) | 
COCCCc1cc(Nc2nc(NCc3cc(C)no3)ncc2Br)[nH]n1 | 3.07 | 120 µM (≈ 50.8 µg/mL) | 
CCCc1cc(Nc2nc(NCc3cc(C)no3)ncc2Br)n[nH]1 | 3.63 | 2.7 µM (≈ 1.06 µg/mL) | 
O=C(/C=C/Sc1nc[nH]n1)c1ccc(Cl)cc1 | 3.1 | 35.5 µM (≈ 9.43 µg/mL) | 
O=c1oc(-c2ccccc2)cc2ccccc12 | 3.84 | 11.5 µM (≈ 2.56 µg/mL) | 
CC1C(=O)Nc2ccccc2N1C(=O)c1ccccc1 (centres undefined) | 2.11 | 40.7 µM (≈ 10.8 µg/mL) | 
Cc1nc(S(C)(=O)=O)ccc1Nc1ncnc(OC2CCN(C(=O)OC(C)C)CC2)c1C | 2.8 | 12.3 µM (≈ 5.7 µg/mL) | 
O=C(Nc1nc2c(=O)[nH]cnc2s1)c1ccccc1 | 1.94 | 7.4 µM (≈ 2.01 µg/mL) | 

Structure (SMILES) | logD (physchem [1]; pH 7.4, LogD7.4) | solubility thermodynamic (physchem [2]) | logD (physchem [1]; pH 7.4)
CCCSc1nc(N2CCC(C(=O)O)CC2)ccc1C(=O)NC1CCCCC1 | 1.6 | 309 µM (≈ 125 µg/mL) | 
CCCSc1nc(NC)ccc1C(=O)N[C@H]1C2CC3CC1C[C@](O)(C3)C2 | 3.27 | 46.8 µM (≈ 17.6 µg/mL) | 
O=c1cc(N2CCOCC2)oc2c(-c3ccccc3)cccc12 [LY-294002] | 2.9 | 302 µM (≈ 92.8 µg/mL) | 
Cc1cc(CCC2CCN(S(=O)(=O)CC3(N(O)C=O)CCOCC3)CC2)c(C)cn1 | 1.43 | 1100 µM (≈ 482 µg/mL) | 
NS(=O)(=O)c1cccc(Nc2nccc(Nc3cccc4[nH]ncc34)n2)c1 | 2.6 | 51.3 µM (≈ 19.6 µg/mL) | 
Clc1ccc(-c2nnc3cccc(Cl)n23)c(Cl)c1 | 2.88 | 52.5 µM (≈ 15.7 µg/mL) | 
Cc1nc(C)c(-c2ccc([C@H]3CC[C@@H](CC(=O)O)CC3)c(F)c2)nc1C(N)=O | 1.2 | 759 µM (≈ 292 µg/mL) | 
Nc1ncnc2c1nc(Sc1nc3cccc(Cl)c3s1)n2CCO | 2.37 | 2 µM (≈ 0.758 µg/mL) | 
COc1cccc(-c2c[nH]c(-c3ccccc3)n2)c1 | 3.8 | 36.3 µM (≈ 9.09 µg/mL) | 
CS(=O)(=O)c1cccc(Nc2nccc(Nc3cccc4c3OCC4)n2)c1 | 3 | 44.7 µM (≈ 17.1 µg/mL) | 
CC1CN(C(=O)c2ccccc2)c2ccccc2NC1=O (centres undefined) | 1.73 | 1200 µM (≈ 337 µg/mL) | 
O=c1cc(N2CCOCC2)nc2c3ccccc3ccn12 | 2.78 | 44.7 µM (≈ 12.6 µg/mL) | 
COc1cc(CO)cc(N(C)c2ccnc(Nc3cc(N4CCOCC4)cc(N4CCOCC4)c3)n2)c1 | 3 | 195 µM (≈ 98.8 µg/mL) | 
c1ccc(Nc2ccnc(Nc3ccccc3)n2)cc1 | 4.06 | 15.1 µM (≈ 3.96 µg/mL) | 
Cc1cc(CNc2nccc(Nc3cc(C)[nH]n3)n2)on1 | 1.86 | 813 µM (≈ 232 µg/mL) | 
O=C(Nc1ccc(N2CCOCC2)nc1)c1nnc(Nc2ccc(F)cc2)o1 | 3 | 2.6 µM (≈ 0.999 µg/mL) | 
O=C(NC1CCCCC1)c1cccnc1Sc1ccccc1 | 3.01 | 22.9 µM (≈ 7.15 µg/mL) | 
C[C@@H]1CN(c2nc(N3CCOCC3)c3ccc(Nc4ccccc4)nc3n2)C[C@H](C)O1 | 4.12 | 1.4 µM (≈ 0.589 µg/mL) | 
Cc1nc(C)c(-c2ccc3c(c2)CC[C@]32CC[C@@H](Cc3nnn[nH]3)CC2)nc1C(N)=O | 2 | 77.6 µM (≈ 32.4 µg/mL) | 
O=CN(O)C1(CS(=O)(=O)N2CCN(c3ccc(F)cc3)CC2)CCOCC1 | 0.85 | 1380 µM (≈ 554 µg/mL) | 
Cc1ccc(CO)cc1N(C)c1ccnc(Nc2cc(N3CCOCC3)nc(N3CCOCC3)c2)n1 | 3.44 | 39.8 µM (≈ 19.6 µg/mL) | 
Cc1cc2c(C)cc(=O)oc2c2c1NCCC2 | 2.9 | 30.9 µM (≈ 7.08 µg/mL) | 
Nc1nccc(/C=C/c2ccc(Cl)cc2)n1 |  | 8.7 µM (≈ 2.02 µg/mL) | 3.5
Cc1ccccc1Nc1ncnc2ccccc12 | 2.85 | 417 µM (≈ 98.1 µg/mL) | 

The remaining lines, values ahead:

logD (physchem [1]; pH 7.4, LogD7.4) | solubility thermodynamic (physchem [2]) | logD (physchem [1]; pH 7.4) | Structure (SMILES)
2.2 | 5.1 µM (≈ 2.79 µg/mL) |  | COc1cc(C(=O)NS(=O)(=O)c2ccccc2)ccc1Cn1ccc2ccc(NC(=O)OC3CCCC3)cc21
3.65 | 27.5 µM (≈ 6.69 µg/mL) |  | Oc1ccc(-c2nc3ccc(O)cc3s2)cc1
3.89 | 3.1 µM (≈ 1.05 µg/mL) |  | CCCc1c(C(=O)Nc2ccc(F)cc2C)cnn1-c1ccccc1
3.6 | 69.2 µM (≈ 31.7 µg/mL) |  | CN(C)CCOc1ccc(-c2oc3ncnc(NC[C@@H]4CCCO4)c3c2-c2ccccc2)cc1
3.75 | 2 µM (≈ 0.687 µg/mL) |  | CCn1c2ccccc2c2cc(NC(=O)CCc3ccncc3)ccc21
3.22 | 347 µM (≈ 118 µg/mL) |  | CCOC(=O)c1ccc(OCCC2CN(c3ccc(C)nn3)C2)cc1
2.43 | 55 µM (≈ 16.7 µg/mL) |  | COC(=O)COc1ccc(C(=O)Nc2ccc(F)cc2)cn1
3.6 | 53.7 µM (≈ 26.7 µg/mL) |  | C=CCN(C(=O)NCc1ccc(OC)cc1)C1CCN(CCC(c2ccccc2)c2ccccc2)CC1
1.22 | 479 µM (≈ 172 µg/mL) |  | NC(=O)Nc1sc(-c2ccc(CNC3CCCC3)cc2)cc1C(N)=O
2.7 | 15.8 µM (≈ 5.87 µg/mL) |  | CCOC(=O)c1ccc(OCCC2CN(c3ccc(C)nn3)CCO2)cc1 (centres undefined)
2.42 | 380 µM (≈ 119 µg/mL) |  | COc1ccc(C(=O)C2CCN(C(=O)c3ccco3)CC2)cc1
1.1 | 8.5 µM (≈ 2.7 µg/mL) |  | CCc1ccc(NC(=O)c2ccc3cc(C(=N)N)ccc3c2)cc1
-0.42 | 1230 µM (≈ 581 µg/mL) |  | CNc1cccc(CCOc2ccc(C[C@H](NC(=O)c3c(F)cccc3Cl)C(=O)O)cc2)n1
3.52 | 5.4 µM (≈ 2.05 µg/mL) |  | CS(=O)(=O)c1cccc(Nc2nccc(Nc3cccc4ccoc34)n2)c1
2.66 | 93.3 µM (≈ 33 µg/mL) |  | COc1cc(Nc2cc(Oc3cccnc3)ccn2)cc(OC)c1OC
3 | 81.3 µM (≈ 23.5 µg/mL) |  | Cc1cccc(NS(=O)(=O)c2cccc3nonc23)c1
3.57 | 81.3 µM (≈ 37.5 µg/mL) |  | Cc1ccc(C(=O)Oc2ccc(C(O)CNC(C)(C)C)cc2OC(=O)c2ccc(C)cc2)cc1 (centres undefined) [BITOLTEROL]

logD (physchem [1]; pH 7.4, LogD7.4) | solubility thermodynamic (physchem [2]) | logD (physchem [1]; pH 7.4) | Structure (SMILES)
2.3 | 13.2 µM (≈ 6.33 µg/mL) |  | COc1cc(-c2cccc3c(=O)cc(N4CCOCC4)oc23)ccc1NC(=O)CN1CCOCC1
2.96 | 132 µM (≈ 56.5 µg/mL) |  | O=C(O)c1c(Sc2ccccc2)c2cc(Cl)ccc2n1Cc1ccc(Cl)cc1
0.84 | 219 µM (≈ 67.9 µg/mL) |  | CS(=O)(=O)c1ccc(C(=O)Nc2ccc(F)cc2)c[n+]1[O-]
-0.15 | 1510 µM (≈ 739 µg/mL) |  | CNc1cccc(CCOc2ccc(C[C@H](NC(=O)c3c(Cl)cccc3Cl)C(=O)O)cc2)n1
2.89 | 295 µM (≈ 138 µg/mL) |  | C[C@@H](Oc1cccc2ncnc(Nc3ccc4c(cnn4Cc4ccccn4)c3)c12)C(=O)N(C)C
1.6 | 21.9 µM (≈ 8.24 µg/mL) |  | Nc1cccc(NC(=O)c2ccc(CNC(=O)OCc3cccnc3)cc2)c1
3.37 | 138 µM (≈ 55.1 µg/mL) |  | CCCS(=O)(=O)c1ccc(Nc2nccc(-c3cnc(C)n3C(C)C)n2)cc1
3.1 | 15.1 µM (≈ 6.42 µg/mL) |  | Cc1ccc(NC(=O)c2ccnc(N3CCOCC3)c2)cc1Nc1ccnc(Cl)n1
3.67 | 44.7 µM (≈ 20 µg/mL) |  | O=C(Nc1ccccc1)c1ccc(OCCCN2CCCC2)cc1OCc1cccc(F)c1
3.5 | 3.6 µM (≈ 1.27 µg/mL) |  | CN(C)C(=O)[C@H](Cc1ccccc1)NC(=O)c1cc2cc(F)ccc2[nH]1
0.82 | 631 µM (≈ 170 µg/mL) |  | CC(=O)Nc1ccc(C(=O)Nc2ccccc2N)cc1 [TACEDINALINE]
3.19 | 66.1 µM (≈ 39.6 µg/mL) |  | COc1cc2ncnc(Nc3cc(NC(=O)c4ccnc(N5CCOCC5)c4)ccc3C)c2cc1OCCN1CCOCC1
 | 5.6 µM (≈ 1.41 µg/mL) | 3.5 | CCn1c2ccccc2c2cc(NC(C)=O)ccc21
1.5 | 12 µM (≈ 4.91 µg/mL) |  | COc1ccc(Nc2cc(Nc3ccc(OCC(O)CN(C)C)cc3)ncn2)cc1 (centres undefined)
3.9 | 56.2 µM (≈ 24.5 µg/mL) |  | COc1cc(Nc2nccc(N(C)c3cc(CO)ccc3C)n2)cc(N2CCOCC2)c1
2.3 | 224 µM (≈ 56.3 µg/mL) |  | COc1cccc2c(O)cc(-c3ccccc3)nc12
2.16 | 525 µM (≈ 336 µg/mL) |  | O=C(Nc1ccccc1-c1ccccc1)OC1CCN(CCCCCCCCCNC[C@H](O)c2ccc(O)c3[nH]c(=O)ccc23)CC1
